Experimental data reported in ChEMBL document CHEMBL4145686, “Discovery of a Potent and Selective Steroidal Glucocorticoid Receptor Antagonist (ORIC-101)” (J Med Chem, 2018).
pEC50, pIC50: −log10 of the molar value. Active and inactive are the calls of the source. No cut-off for these calls is given here.

How the values were obtained:
Androgen receptor [1] = biological target: T1, Androgen receptor (Homo sapiens, UniProt P10275); assay: Agonist activity at AR in human LNAR cells assessed as increase in TMPRSS2 gene expression at 0.1 nM incubated for 24 hrs by RT-qPCR method; format: cell-based; details: 0.0001 µM
T1 sequence (P10275 whole entry): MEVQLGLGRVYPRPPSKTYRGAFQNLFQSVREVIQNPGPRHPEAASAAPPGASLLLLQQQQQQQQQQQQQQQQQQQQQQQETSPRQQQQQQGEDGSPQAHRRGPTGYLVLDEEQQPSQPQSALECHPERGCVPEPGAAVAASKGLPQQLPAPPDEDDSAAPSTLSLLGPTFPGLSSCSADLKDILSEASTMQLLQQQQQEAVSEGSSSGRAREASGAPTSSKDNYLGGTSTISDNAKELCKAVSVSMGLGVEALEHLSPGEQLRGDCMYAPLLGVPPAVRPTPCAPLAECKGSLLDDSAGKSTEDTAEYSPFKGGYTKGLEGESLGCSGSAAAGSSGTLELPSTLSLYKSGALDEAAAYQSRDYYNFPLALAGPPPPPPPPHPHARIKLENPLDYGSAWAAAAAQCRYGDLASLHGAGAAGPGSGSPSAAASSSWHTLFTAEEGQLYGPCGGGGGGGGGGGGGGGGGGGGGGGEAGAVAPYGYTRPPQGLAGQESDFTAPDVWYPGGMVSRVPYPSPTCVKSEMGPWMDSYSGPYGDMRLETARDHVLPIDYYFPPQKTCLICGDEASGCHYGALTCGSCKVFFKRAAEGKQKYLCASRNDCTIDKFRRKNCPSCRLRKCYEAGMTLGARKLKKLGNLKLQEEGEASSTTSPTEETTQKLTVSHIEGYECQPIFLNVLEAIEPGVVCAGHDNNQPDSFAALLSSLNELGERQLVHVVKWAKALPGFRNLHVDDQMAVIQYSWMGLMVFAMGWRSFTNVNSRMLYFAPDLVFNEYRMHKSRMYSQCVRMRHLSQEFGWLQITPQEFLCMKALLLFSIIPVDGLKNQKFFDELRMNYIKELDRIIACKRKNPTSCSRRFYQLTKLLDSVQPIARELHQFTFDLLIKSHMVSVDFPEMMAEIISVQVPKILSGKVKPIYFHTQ

Androgen receptor [2] = biological target: T1, Androgen receptor; assay: Agonist activity at AR in human LNAR cells assessed as increase in PSA gene expression at 0.1 nM incubated for 24 hrs in presence of 1 uM enzalutamide by RT-qPCR method; format: cell-based; details: 0.0001 µM
Androgen receptor [3] = biological target: T1, Androgen receptor; assay: Agonist activity at AR in human LNAR cells assessed as increase in TMPRSS2 gene expression at 0.1 nM incubated for 24 hrs in presence of 1 uM enzalutamide by RT-qPCR method; format: cell-based; details: 0.0001 µM
Androgen receptor [4] = biological target: T1, Androgen receptor; assay: Agonist activity at AR in human LNAR cells assessed as increase in PSA gene expression at 0.1 nM incubated for 24 hrs by RT-qPCR method; format: cell-based; details: 0.0001 µM
OVCAR-5 = details: Homo sapiens, 100 mg/kg
Androgen receptor [5] = biological target: T1, Androgen receptor; assay: Agonist activity at AR (unknown origin) expressed in human LNCaP cells incubated for 20 hrs by luciferase reporter gene assay; format: cell-based
Cytochrome P450 2C8 = biological target: T2, Cytochrome P450 2C8 (Homo sapiens, UniProt P10632); assay: Inhibition of CYP2C8 (unknown origin) using […] as substrate; format: ADME
T2 sequence (P10632 whole entry): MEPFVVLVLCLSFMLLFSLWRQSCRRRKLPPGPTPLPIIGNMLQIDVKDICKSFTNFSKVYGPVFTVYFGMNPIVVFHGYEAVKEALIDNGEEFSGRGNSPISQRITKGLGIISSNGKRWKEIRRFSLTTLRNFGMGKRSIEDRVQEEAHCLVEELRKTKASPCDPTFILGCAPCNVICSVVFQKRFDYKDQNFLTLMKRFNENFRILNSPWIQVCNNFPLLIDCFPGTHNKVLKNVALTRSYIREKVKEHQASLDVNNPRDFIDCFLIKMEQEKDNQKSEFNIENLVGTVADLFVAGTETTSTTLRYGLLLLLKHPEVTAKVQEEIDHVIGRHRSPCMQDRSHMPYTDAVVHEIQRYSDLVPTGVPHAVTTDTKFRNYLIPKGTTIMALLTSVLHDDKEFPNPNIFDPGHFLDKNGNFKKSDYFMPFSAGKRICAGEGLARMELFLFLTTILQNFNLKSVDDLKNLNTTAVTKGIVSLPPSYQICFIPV

[6] = Half life in rat at 0.5 mg/kg, iv; format: ADME, organism-based; details: in vivo
[7] = Clearance in rat at 0.5 mg/kg, iv; format: ADME, organism-based; details: in vivo
[8] = Oral bioavailability in rat at 5 mg/kg; format: ADME, organism-based; details: in vivo
Glucocorticoid receptor [9] = biological target: T3, Glucocorticoid receptor (Homo sapiens, UniProt P04150); assay: Agonist activity at human GR expressed in CHO-K1 cells incubated for 20 hrs by luciferase reporter gene assay; format: cell-based
T3 sequence (P04150 whole entry): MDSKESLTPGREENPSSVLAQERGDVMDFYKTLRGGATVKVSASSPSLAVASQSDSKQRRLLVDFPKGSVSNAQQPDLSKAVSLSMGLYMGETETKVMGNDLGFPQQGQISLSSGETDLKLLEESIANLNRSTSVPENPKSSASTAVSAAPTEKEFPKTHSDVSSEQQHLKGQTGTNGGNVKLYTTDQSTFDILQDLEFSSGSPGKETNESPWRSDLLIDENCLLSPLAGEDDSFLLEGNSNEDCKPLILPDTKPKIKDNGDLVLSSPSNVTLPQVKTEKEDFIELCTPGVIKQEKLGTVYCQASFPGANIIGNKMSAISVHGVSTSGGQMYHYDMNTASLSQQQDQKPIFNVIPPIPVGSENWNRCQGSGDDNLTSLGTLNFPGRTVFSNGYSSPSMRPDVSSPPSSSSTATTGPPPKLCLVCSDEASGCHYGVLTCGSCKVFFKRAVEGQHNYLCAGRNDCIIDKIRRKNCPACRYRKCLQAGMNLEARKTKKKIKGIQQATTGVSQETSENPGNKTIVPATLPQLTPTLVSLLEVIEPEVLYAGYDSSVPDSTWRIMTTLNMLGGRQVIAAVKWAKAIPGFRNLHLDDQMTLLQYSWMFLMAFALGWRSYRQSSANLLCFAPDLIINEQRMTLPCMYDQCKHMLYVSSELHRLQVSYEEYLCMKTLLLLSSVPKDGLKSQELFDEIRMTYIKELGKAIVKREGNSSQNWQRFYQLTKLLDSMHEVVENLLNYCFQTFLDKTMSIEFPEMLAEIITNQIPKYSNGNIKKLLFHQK

[10] = AUC in rat at 5 mg/kg, po; format: ADME, organism-based; details: in vivo
androgen receptor (AR) = biological target: T4, androgen receptor (AR) (Homo sapiens, UniProt P10275); assay: Agonist activity at AR (unknown origin) expressed in human LNCaP cells incubated for 20 hrs by luciferase reporter gene assay relative to mifepristone; format: cell-based; details: human LNCaP cells expressing AR
T4 sequence (P10275 whole entry): T1 sequence (P10275 whole entry)

Cytochrome P450 2C9 = Cytochrome P450 2C9 (Homo sapiens, UniProt P11712); assay: Inhibition of CYP2C9 (unknown origin) using […] as substrate; format: ADME
Chain of Cytochrome P450 2C9 (P11712 whole entry): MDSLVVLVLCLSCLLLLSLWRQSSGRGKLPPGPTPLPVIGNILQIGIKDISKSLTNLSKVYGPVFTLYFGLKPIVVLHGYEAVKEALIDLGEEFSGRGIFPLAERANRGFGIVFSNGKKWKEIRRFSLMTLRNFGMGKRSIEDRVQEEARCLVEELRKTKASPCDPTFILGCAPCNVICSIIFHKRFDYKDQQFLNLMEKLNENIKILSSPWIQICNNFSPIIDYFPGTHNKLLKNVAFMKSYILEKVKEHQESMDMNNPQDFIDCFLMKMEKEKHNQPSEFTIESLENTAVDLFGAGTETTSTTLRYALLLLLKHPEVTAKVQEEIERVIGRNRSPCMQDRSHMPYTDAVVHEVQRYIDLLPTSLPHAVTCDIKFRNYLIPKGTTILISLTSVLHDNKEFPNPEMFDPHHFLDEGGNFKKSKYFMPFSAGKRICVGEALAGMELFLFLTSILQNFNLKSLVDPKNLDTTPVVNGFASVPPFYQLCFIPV

[11] = biological target: T5, glucocorticoid receptor (GR) (Homo sapiens, UniProt P04150); assay: Agonist activity at human GR expressed in CHO-K1 cells incubated for 20 hrs by luciferase reporter gene assay relative to dexamethasone; format: cell-based; details: CHO-K1 cells expressing human GR
T5 sequence (P04150 whole entry): T3 sequence (P04150 whole entry)

[12] = Cmax in rat at 5 mg/kg, po; format: ADME, organism-based; design: dose 5 mg/kg, route oral; details: in vivo
Cytochrome P450 3A4 = Cytochrome P450 3A4 (Homo sapiens, UniProt P08684); assay: Inhibition of CYP3A4 (unknown origin) using midazolam as substrate; format: ADME
Chain of Cytochrome P450 3A4 (P08684 whole entry): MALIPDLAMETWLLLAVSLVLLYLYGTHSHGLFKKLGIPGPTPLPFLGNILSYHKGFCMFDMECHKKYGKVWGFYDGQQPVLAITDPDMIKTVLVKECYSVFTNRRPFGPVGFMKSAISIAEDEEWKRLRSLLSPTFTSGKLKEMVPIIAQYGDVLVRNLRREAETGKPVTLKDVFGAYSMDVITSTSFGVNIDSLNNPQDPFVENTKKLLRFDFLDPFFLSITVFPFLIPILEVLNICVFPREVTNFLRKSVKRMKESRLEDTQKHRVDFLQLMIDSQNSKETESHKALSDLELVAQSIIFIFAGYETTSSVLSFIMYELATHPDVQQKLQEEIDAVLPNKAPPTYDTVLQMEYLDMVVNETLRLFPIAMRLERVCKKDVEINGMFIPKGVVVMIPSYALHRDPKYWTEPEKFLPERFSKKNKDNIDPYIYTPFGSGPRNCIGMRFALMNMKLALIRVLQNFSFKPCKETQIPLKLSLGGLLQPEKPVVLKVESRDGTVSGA

Glucocorticoid receptor [13] = biological target: T3, Glucocorticoid receptor; assay: Antagonist activity at human GR expressed in CHO-K1 cells assessed as reduction in dexamethasone-induced response incubated for 20 hrs by luciferase reporter gene assay; format: cell-based
[14] = Volume of distribution at steady state in rat at 0.5 mg/kg, iv; format: ADME, organism-based; details: in vivo, read-out: Vdss

Compound: C[C@]1(O)CC[C@H]2[C@@H]3CCC4=CC(=O)CCC4=C3C=C[C@@]21C [METRIBOLONE]
- Activity (Androgen receptor [1]): Active
- Activity (Androgen receptor [2]): Not Active
- Activity (Androgen receptor [3]): Not Active
- Activity (Androgen receptor [4]): Active

Compound: Nc1ccn([C@@H]2O[C@H](CO)[C@@H](O)C2(F)F)c(=O)n1
- TGI (OVCAR-5): Active

Compound: CN(C)c1ccc([C@H]2C[C@@]3(C)[C@@H](CC[C@@]3(O)C#CC(C)(C)C)[C@@H]3CCC4=CC(=O)CCC4=C32)cc1
- pEC50 (Androgen receptor [5]): < 5.60
- pIC50 (Cytochrome P450 2C8): < 5.00
- half-life [6]: 114 min
- clearance [7]: 66.7 mL/min/kg
- bioavailability [8]: 37%
- pEC50 (Glucocorticoid receptor [9]): < 5.60
- AUC [10]: 471 ng·h/mL
- Emax at 20 h (androgen receptor (AR)): 13.4%
- pIC50 (Cytochrome P450 2C9): < 5.00
- Emax at 20 h [11]: 1.4%
- Cmax [12]: 72 ng/mL
- pIC50 (Cytochrome P450 3A4): 5.54
- pIC50 (Glucocorticoid receptor [13]): 7.84
- Vd [14]: 4.9 L/kg
